Data as given in US20100069340A1, “PHARMACEUTICAL COMPOSITIONS OF AN SRC KINASE INHIBITOR AND AN AROMATASE INHIBITOR” (Wyeth, priority 2008, published 2010).

What was measured:
MDA-MB-361 = assay: Cell proliferation assay (CellTiter Glo), MDA-MB-361; format: cell-based
Description: (§1) Cell lines were obtained from ATCC. Estrogen was obtained from SIGMA, 4-hydroxytamoxifen was obtained from SIGMA, Bosutinib was used for these studies. Charcoal-stripped serum and phenol red-free medium was obtained from Invitrogen. CellTiter Glo was obtained from Promega.
(§2) Cell cultures. Proliferation assays with cells in complete fetal calf serum were performed with medium containing phenol red. For all assays examining estrogen-dependence, cells were cultured in phenol red-free medium; DMEM/F12 (MCF7), RPMI1640 (MDA-MB-361, T47D) MEM (BT20, MDA-MB-231) McCoys5A modified (SKBR3), Leibowitz' L15 medium supplemented with 10 ng/mL insulin (MDA-MB-435 and MDA-MB-468) with 10% fetal bovine serum supplemented with glutamine and gentamicin. For proliferation assays, trypsinized cells were subjected to three cycles of centrifugation and resuspension in phenol red-free medium supplemented with charcoal stripped medium (5% final), glutamine and Pen/Strep. Cells were plated on day 0, with or without estrogen (10 nM final concentration). On day 1, 4-hydroxytamoxifen and SKI-606 or DMSO were added as a serial dilution. Cells were incubated for 7 days, after which CellTiter Glo (Promega) was added as recommended by the manufacturer. After mixing and two hours incubation on the bench, plates were read on an Envision reader. […] The 10 uM data point was dropped for these two lines since there was a clear plateau prior to the sharp drop in luminescence observed at 10 uM compound. The IC50 was calculated using a floating minima corresponding to the lowest luminescence value at 5 uM.
(§3) Cell proliferation assays were performed in two formats; a three day proliferation assay in fully supplemented medium with phenol red, and a 7 day proliferation assay in phenol red free medium supplemented with charcoal-stripped medium. […] ER positive T47D cells were slightly more sensitive to SKI-606 in the presence of estrogen. BT20 cells were equally sensitive to SKI-606 in stripped serum medium, regardless of whether estrogen was present.
(§4) Proliferation data for SKI-606 in various breast tumor lines in complete medium (10% FCS) and charcoal stripped serum with no phenol red (no E2, E2) with and without 10 nM estrogen. The complete medium data were obtained in 3-day assays, while stripped serum assays were extended for 7 days with one change of medium at day 5. The IC50 values for the BT20 line was calculated using the “plateau” cell number evident at 5 μM SKI-606.

MCF7 = assay: Cell proliferation assay (CellTiter Glo), MCF7; format: cell-based
Description: as §1, §2, §3, §4

4-hydroxytamoxifen
cell proliferation in the absence of estrogen (MDA-MB-361; MDA-MB-361, absence of estrogen): little effect
effect on estrogen-stimulated proliferation (MDA-MB-361; MDA-MB-361, presence of estrogen): inhibited in a dose-dependent manner
estrogen-independent cell proliferation (MCF7; MCF7, absence of estrogen): inhibits
effect on estrogen-stimulated proliferation (MCF7; MCF7, presence of estrogen): inhibited in a dose-dependent manner
